One test relates to LNCaP. Kind of test: Antiproliferative activity against human LNCaP cells assessed as reduction in cell viability incubated for 72 hrs by XTT assay. (Tetrazolium dyes change colour on reduction, which living cells bring about.)
The subject of another test is T47D. Kind of test: Antiproliferative activity against human T47D cells assessed as reduction in cell viability incubated for 72 hrs by XTT assay.
Test [1] deals with T1, Transient receptor potential cation channel subfamily V member 6 (Homo sapiens, UniProt Q9H1D0).
T1 sequence (Q9H1D0 whole entry): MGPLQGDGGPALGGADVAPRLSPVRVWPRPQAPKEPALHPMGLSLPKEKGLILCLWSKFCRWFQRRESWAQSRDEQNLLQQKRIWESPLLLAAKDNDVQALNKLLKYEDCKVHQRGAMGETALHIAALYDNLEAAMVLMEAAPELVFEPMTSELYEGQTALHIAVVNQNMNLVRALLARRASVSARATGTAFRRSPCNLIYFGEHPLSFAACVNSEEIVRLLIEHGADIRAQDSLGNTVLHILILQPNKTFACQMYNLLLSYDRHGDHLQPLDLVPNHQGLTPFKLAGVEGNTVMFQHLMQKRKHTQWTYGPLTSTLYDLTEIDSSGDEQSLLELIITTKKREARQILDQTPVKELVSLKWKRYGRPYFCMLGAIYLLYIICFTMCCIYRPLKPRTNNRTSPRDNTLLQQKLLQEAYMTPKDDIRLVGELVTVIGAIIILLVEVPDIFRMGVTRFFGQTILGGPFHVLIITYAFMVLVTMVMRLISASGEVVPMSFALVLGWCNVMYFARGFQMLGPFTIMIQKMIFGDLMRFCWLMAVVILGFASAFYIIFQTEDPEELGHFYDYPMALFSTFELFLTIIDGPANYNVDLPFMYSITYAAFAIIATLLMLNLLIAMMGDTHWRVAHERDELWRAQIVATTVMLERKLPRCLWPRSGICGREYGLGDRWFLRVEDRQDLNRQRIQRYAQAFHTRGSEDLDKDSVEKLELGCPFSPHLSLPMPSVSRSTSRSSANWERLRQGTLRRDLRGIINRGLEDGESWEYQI
Kind of test: Inhibition of TRPV6 (unknown origin).

The target of test [2] is T1, Transient receptor potential cation channel subfamily V member 6. Kind of test: Inhibition of TRPV6 (unknown origin) transfected in HEK293 cells assessed as reduction in TRPV6-induced Cd2+ influx.
For test [3] the target is unchanged. Kind of test: Inhibition of TRPV6 (unknown origin) expressed in Sf9 cells.

As to `CN(C)c1ccc(CCN2CCC[C@@H]2CO)cc1`, the IC50 – broadly, the concentration that gives 50% inhibition – in the test with LNCaP was 1 µM; in the test with T47D, 49.1 µM. `COc1ccc(CCN2CCC[C@@H]2COCc2ccc(Cl)cc2)cc1`: the figures for the half-maximal inhibitory concentration (IC50) (in test [1]; with LNCaP; in the test on T47D) were 0.44 µM, 0.44 µM and 38.8 µM, respectively. For the compound `c1ccc(COc2ccccc2CNC23CC4CC(CC(C4)C2)C3)cc1`, the IC50 in test [2] was determined as 21 µM. Regarding `Fc1ccc(CCNCc2ccccc2OCc2ccc(F)cc2)cc1`, the 50% inhibitory concentration (IC50) in test [2] amounted to 15 µM. On the same count and under the same terms, then `c1ccc(C2CCC(N3CCN(Cc4ccco4)CC3)CC2)cc1` (configuration not stated), with 25 µM.

Take `CN(C)c1ccc(CCN2CCC[C@@H]2COC(c2ccccc2)c2ccc(Cl)cc2)cc1` (some centres not stated): the IC50 amounted to 0.31 µM in the test with LNCaP and 44.5 µM with T47D. Take `c1ccc(Oc2cccc(CN3CCN(Cc4cccnc4)CC3)c2)cc1`: the IC50 in test [2] amounted to 17 µM.

For the compound `COc1ccc(CCN2CCC[C@@H]2COC(c2ccccc2)c2ccccc2)cc1`, the IC50 in the test with LNCaP is 61 µM; with T47D, 198 µM. Taken in the same sequence, the figures for `COc1ccc(CCN2CCC[C@@H]2COC(c2ccccc2)c2ccc(Cl)cc2)cc1` (some centres not stated) were 50 µM and 220 µM.

In turn, `CCCc1cc(O)c2c(c1)OC(C)(C)[C@@H]1C=CC(C)=C[C@@H]21` gave an IC50 in test [3] of 9.4 µM. Turning to `COc1cc(Br)ccc1CN1CCN(C2CCC(c3ccccc3)CC2)CC1` (configuration not stated), the IC50 in test [2] was 26 µM.

These data come from ChEMBL document CHEMBL5500350, “Advances in TRPV6 inhibitors for tumors by targeted therapies: Macromolecular proteins, synthetic small molecule compounds, and natural compounds” (Eur J Med Chem, 2024).
